Measurements: patent publication US9284580B2 (priority 2010, dated 2016)
Where two headings read alike, the source gives them in different places.

What was measured:
AckKO(pMAD22) = test: Batch fermentation in serum bottles with a hydrogenase inhibitor; format: cell-based, Clostridium tyrobutyricum; details: hydrogenase inhibitor added to fermentation
C. tyrobutyricum mutants = system: C. tyrobutyricum mutants
Excerpt: Cell growth was monitored by measuring the optical density at 600 nm (OD600) of the culture broth.

| Compound | effect on acids and butanol production from glucose (AckKO(pMAD22)) | effect on cell growth (C. tyrobutyricum mutants; 0.5% (v/v) butanol in RCM medium, strains studied) | cell growth (C. tyrobutyricum mutants; 2.0% (v/v) butanol, all strains started to grow after 2 days) | tolerated butanol concentration (C. tyrobutyricum mutants; after adaptation) | tolerated butanol concentration (C. tyrobutyricum mutants; without adaptation) |
| --- | --- | --- | --- | --- | --- |
| C[n+]1ccc(-c2cc[n+](C)cc2)cc1 [methyl viologen] | significantly decreased acids production and enhanced butanol production from glucose |  |  |  |  |
| Cc1cc2nc3ccc(N(C)C)cc3nc2cc1N.Cl [neutral red] | significantly decreased acids production and enhanced butanol production from glucose |  |  |  |  |
| butanol |  | does not have any apparent effect on cell growth | no significant cell growth was observed for the first 24 hours | up to 2.0 % (v/v) | up to 1.5 % (v/v) |
